Reference: ChEMBL document CHEMBL3877259, “Design and discovery of 4-anilinoquinazoline-urea derivatives as dual TK inhibitors of EGFR and VEGFR-2” (Eur J Med Chem, 2017)

How the values were obtained:
[1] = molecular target: Epidermal growth factor receptor (Homo sapiens, UniProt P00533)
[2] = Antiproliferative activity against human MCF7 cells measured after 48 hrs by MTT assay; type: functional, cell-based; conditions: MCF7, 48 h
[3] = Antiproliferative activity against human HT-29 cells measured after 48 hrs by MTT assay; type: functional, cell-based; conditions: HT-29, 48 h
[4] = Antiproliferative activity against human H460 cells measured after 48 hrs by MTT assay; type: functional, cell-based; conditions: NCI-H460, 48 h
[5] = molecular target: Vascular endothelial growth factor receptor 2 (Homo sapiens, UniProt P35968); experiment: Inhibition of N-terminal GST-tagged human VEGFR-2 cytoplasmic domain (790 to 1356 residues) expressed in baculovirus expression system preincubated for 10 mins followed by FAM-labelled peptide substrate addition by caliper mobility shift assay
Chain of Vascular endothelial growth factor receptor 2 (P35968 whole entry, the tested form may be a part): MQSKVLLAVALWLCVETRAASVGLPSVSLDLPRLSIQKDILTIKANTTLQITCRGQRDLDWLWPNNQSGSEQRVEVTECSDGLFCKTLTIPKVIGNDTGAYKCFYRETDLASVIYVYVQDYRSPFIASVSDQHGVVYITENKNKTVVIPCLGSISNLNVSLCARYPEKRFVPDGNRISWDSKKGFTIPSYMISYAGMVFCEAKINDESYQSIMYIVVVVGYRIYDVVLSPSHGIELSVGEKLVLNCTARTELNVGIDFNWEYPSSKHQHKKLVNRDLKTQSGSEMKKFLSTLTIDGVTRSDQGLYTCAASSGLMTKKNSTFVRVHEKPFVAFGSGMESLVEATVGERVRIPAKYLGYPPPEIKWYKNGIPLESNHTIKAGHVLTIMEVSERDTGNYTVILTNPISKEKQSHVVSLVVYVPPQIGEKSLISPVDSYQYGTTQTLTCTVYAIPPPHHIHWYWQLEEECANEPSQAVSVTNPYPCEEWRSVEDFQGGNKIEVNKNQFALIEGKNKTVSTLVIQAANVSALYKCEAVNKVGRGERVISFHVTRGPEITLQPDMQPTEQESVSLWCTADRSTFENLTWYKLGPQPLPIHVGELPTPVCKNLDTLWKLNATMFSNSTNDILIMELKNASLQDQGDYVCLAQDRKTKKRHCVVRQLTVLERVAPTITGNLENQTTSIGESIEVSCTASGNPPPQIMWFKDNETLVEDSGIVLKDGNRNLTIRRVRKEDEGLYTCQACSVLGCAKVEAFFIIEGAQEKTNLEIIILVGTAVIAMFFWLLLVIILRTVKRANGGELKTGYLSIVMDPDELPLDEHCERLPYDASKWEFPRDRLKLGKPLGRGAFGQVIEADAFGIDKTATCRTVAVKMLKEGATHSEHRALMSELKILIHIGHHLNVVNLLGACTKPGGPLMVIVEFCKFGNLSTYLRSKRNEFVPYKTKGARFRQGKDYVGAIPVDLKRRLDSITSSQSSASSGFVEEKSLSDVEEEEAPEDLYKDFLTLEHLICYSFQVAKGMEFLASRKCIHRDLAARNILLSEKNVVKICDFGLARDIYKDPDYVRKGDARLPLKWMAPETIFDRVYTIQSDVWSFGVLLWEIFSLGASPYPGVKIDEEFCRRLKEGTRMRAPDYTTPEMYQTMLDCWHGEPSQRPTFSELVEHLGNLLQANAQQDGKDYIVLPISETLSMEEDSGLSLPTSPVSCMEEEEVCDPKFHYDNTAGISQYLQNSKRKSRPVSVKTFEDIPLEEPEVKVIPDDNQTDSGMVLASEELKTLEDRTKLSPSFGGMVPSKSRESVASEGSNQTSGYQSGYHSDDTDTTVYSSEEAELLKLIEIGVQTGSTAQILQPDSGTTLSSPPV

Chain of Epidermal growth factor receptor (P00533 whole entry): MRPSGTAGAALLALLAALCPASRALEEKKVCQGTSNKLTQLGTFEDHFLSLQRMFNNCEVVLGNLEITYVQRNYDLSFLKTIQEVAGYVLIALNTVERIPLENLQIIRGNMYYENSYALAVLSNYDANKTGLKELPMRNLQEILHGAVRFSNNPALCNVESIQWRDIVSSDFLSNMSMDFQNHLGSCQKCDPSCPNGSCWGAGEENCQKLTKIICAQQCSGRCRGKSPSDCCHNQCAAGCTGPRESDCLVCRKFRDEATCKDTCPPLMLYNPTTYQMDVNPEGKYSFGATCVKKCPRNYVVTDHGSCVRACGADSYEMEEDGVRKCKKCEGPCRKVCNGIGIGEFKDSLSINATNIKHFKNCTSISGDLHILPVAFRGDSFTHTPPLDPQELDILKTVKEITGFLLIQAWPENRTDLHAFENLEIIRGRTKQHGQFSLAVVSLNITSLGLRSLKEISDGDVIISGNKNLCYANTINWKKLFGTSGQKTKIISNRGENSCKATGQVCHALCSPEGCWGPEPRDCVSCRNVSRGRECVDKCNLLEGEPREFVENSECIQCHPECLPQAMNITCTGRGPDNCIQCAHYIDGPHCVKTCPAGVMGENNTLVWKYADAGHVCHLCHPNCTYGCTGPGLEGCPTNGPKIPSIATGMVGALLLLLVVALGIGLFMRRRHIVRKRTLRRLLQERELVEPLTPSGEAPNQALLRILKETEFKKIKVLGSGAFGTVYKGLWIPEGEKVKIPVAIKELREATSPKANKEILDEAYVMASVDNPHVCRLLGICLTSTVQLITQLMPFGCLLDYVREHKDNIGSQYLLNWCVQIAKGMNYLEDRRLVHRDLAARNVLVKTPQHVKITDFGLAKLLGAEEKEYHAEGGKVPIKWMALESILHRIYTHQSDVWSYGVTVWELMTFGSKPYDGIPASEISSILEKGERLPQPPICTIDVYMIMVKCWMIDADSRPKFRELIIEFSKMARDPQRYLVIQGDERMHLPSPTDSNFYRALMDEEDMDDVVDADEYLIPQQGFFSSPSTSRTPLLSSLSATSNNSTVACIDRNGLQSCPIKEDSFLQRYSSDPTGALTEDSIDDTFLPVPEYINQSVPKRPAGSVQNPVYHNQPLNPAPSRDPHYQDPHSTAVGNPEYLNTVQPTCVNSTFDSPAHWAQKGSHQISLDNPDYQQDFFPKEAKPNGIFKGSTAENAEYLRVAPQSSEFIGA

SMILES | IC50 [1] [µM] | IC50 [2] [µM] | IC50 [3] [µM] | IC50 [4] [µM] | IC50 [5] [µM]
COc1cc2c(Nc3ccc(NC(=O)Nc4cccc(Cl)c4)cc3)ncnc2cc1OCc1ccccc1 | 4.65 | > 50 | > 50 | > 50 | > 10
COc1cc2c(Nc3ccc(NC(=O)Nc4cccc(Cl)c4)cc3)ncnc2cc1OCCCN1CCN(C)CC1 | 0.5 | 24.7 | 22.9 | 8.16 | 0.588
COC(=O)CNC(=O)c1ccc(Nc2ncnc3cc(OCCCN4CCOCC4)c(OC)cc23)cc1 | 0.763 | > 50 | > 50 | > 50 | 0.404
COc1cc2c(Nc3ccc(NC(=O)Nc4ccc(Cl)cc4)cc3)ncnc2cc1OCCCN1CCN(C)CC1 | 0.235 | > 50 | 28.7 | 17.8 | 0.815
COc1cc2c(Nc3ccc(NC(=O)Nc4ccc(C)c(C)c4)cc3)ncnc2cc1OCCCN1CCN(C)CC1 | 0.668 | 36.5 | 25.9 | 22 | 0.214
COc1cc2c(Nc3ccc(NC(=O)Nc4ccc(Cl)cc4)c(Cl)c3)ncnc2cc1OCCN1CCCCC1 | > 10 | 1.89 | 4.38 | 5 | > 10
COc1cc2c(Nc3ccc(NC(=O)Nc4ccccc4C)cc3)ncnc2cc1OCc1ccccc1 | > 10 | > 50 | 28.8 | 23.9 | > 10
COC(=O)CNC(=O)c1ccc(Nc2ncnc3cc(OCCN4CCCCC4)c(OC)cc23)cc1 |  | 8.39 | > 50 | > 50 | 0.966
COc1cc2c(Nc3ccc(NC(=O)Nc4ccc(C)c(C)c4)c(Cl)c3)ncnc2cc1OCCCN1CCOCC1 | 0.051 | 2.63 | 7.29 | 3.52 | 0.014
COc1cc2c(Nc3ccc(NC(=O)Nc4ccccc4)cc3)ncnc2cc1OCCCN1CCN(C)CC1 | 0.194 | 29.1 | 49.4 | 28.4 | 0.576
COc1cc2c(Nc3ccc(NC(=O)Nc4ccc(F)c(Cl)c4)c(Cl)c3)ncnc2cc1OCCCN1CCN(C)CC1 | 0.078 | 3.2 | 6.41 | 12.1 | 0.014
COc1cc2c(Nc3ccc(NC(=O)Nc4ccccc4C)cc3)ncnc2cc1OCCCN1CCN(C)CC1 | 0.502 | 32.2 | > 50 | 22.3 | 1.99
COc1cc2c(Nc3ccc(NC(=O)Nc4ccccc4C)c(Cl)c3)ncnc2cc1OCCCN1CCN(C)CC1 |  | 6.21 | 4.81 | > 50 | 0.178
COc1cc2c(Nc3ccc(NC(=O)Nc4ccc(C)c(C)c4)c(Cl)c3)ncnc2cc1OCCN1CCCCC1 | 0.817 | 1.27 | 1.85 | 2.9 | 0.018
COc1cc2c(Nc3ccc(NC(=O)Nc4ccc(C)cc4)cc3)ncnc2cc1OCc1ccccc1 | > 10 | > 50 | > 50 | 25.4 | > 10
COc1cc2c(Nc3ccc(NC(=O)Nc4ccccc4)c(Cl)c3)ncnc2cc1OCCN1CCCCC1 | 0.212 | > 50 | > 50 | > 50 | 1.87
COc1cc2c(Nc3ccc(NC(=O)Nc4ccc(C)c(C)c4)cc3)ncnc2cc1OCc1ccccc1 | > 10 | > 50 | > 50 | 49.6 | > 10
COc1cc2c(Nc3ccc(NC(=O)Nc4ccc(Cl)cc4)c(Cl)c3)ncnc2cc1OCCCN1CCOCC1 | 0.017 | 39.2 | 22 | 28 | 0.528
COc1cc2c(Nc3ccc(NC(=O)Nc4ccc(Cl)cc4)c(Cl)c3)ncnc2cc1OCCCN1CCN(C)CC1 | 0.001 | > 50 | 20.7 | 28 | 0.279
COc1cc2c(Nc3ccc(NC(=O)Nc4ccc(Cl)cc4)cc3)ncnc2cc1OCc1ccccc1 | > 10 | > 50 | > 50 | 38.8 | > 10
COc1cc2c(Nc3ccc(NC(=O)Nc4ccc(C)c(C)c4)c(Cl)c3)ncnc2cc1OCCCN1CCN(C)CC1 | 0.001 | 7.28 | 1.76 | 26 | 0.079
COC(=O)CNC(=O)c1ccc(Nc2ncnc3cc(OCCCN4CCN(C)CC4)c(OC)cc23)cc1 | 0.611 | > 50 | > 50 | > 50 | 0.275
COc1cc2c(Nc3ccc(NC(=O)Nc4ccccc4)c(Cl)c3)ncnc2cc1OCCCN1CCN(C)CC1 | 0.014 | > 50 | 17.3 | 33 | 0.261
COc1cc2c(Nc3ccc(NC(=O)Nc4ccccc4)cc3)ncnc2cc1OCc1ccccc1 | 2.93 | 22.8 | > 50 | > 50 | > 10
COc1cc2/c(=N/c3ccc(Br)cc3F)nc[nH]c2cc1OCC1CCN(C)CC1 [VANDETANIB] |  | 11.8 | 18.9 | 37.1 | 
